From patent US8507448B2, “Human CD154-binding synthetic peptide and uses thereof” (Fresenius Medical Care Deutschland G.m.b.H., priority 2007, dated 2013)
Positions of bridges follow the written chain, without caps; N, C: chain ends. Residues, ends and D or L forms follow the SMILES beside them. No end group written: not given here.

Key:
human platelets = test: Platelet aggregation assay (aggregometer); assay type: cell-based
Protocol: Platelet aggregation was measured with an aggregometer, as the increase in light transmission compared to the control. Priming of human platelets with the anti-human CD154 antibody in combination with rhsCD154 increases platelet aggregation upon stimulation with ADP 0.5 μM.
Finally, one of the major advantages of peptide 4.10 is its lack of reactivity towards human platelets. It is know that in the past, a number of clinical trials carried out to test promising anti-CD154 monoclonal antibodies were suddenly discontinued due to dramatic prothrombotic side effects (Kelsoe G. et al, J. Clin. Invest. 2003). The hypothesis is that the anti-CD154 antibodies had triggered a cross-reaction on the surface of human platelets expressing the receptor for the Fc immunoglobulin fraction (FcR) and, after activation, the CD154 molecule. Thus, the inventors tested the effect of peptide 4.10 on platelets, by a platelet aggregation assay. Such experiments were carried out by the use of a thermostatic aggregometer, equipped with a magnetic stirrer and a real time optical density meter. Platelet aggregation was evaluated as the change in optical density versus the reference sample (blank). The experiments were carried out on platelets extracted from peripheral whole blood of healthy donors collected in tubes containing 5 U/ml heparin. In particular, the platelet enriched plasma (PRP), was obtained by whole blood centrifugation at 900 rpm for 20 minutes, while the platelet poor plasma (PPP), used as the reference sample, was obtained collecting the supernatant after another centrifugation at 3000 rpm for 10 minutes. […] Similar results were obtained inducing platelet aggregation with 0.3 U/ml thrombin.

[1] = target: T1, human CD154 expressed on the surface of J558L cells (Homo sapiens, UniProt P29965); test: Binding of -His6-tagged peptides to J558L CD154+ cells by flow cytometry; conditions: -His6 peptides 60 μM, 30 minutes at room temperature
T1 construct: expressed in transfected cells; host or cells: J558L murine myeloma cell line transfected with human CD154
T1 sequence (P29965 1-261): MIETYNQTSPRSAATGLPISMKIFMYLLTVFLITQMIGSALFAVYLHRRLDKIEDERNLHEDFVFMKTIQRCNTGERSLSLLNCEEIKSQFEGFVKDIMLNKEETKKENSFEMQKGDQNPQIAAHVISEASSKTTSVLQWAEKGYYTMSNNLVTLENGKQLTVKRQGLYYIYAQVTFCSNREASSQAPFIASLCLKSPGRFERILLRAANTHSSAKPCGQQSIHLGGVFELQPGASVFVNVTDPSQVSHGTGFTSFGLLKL
Protocol: FIG. 2 represents the binding of the seven peptides obtained from the human CD154-binding clones and tagged with a 6 histidines tail (-His6) to the J558L CD154^+ cells. […] The cells were incubated with each of the -His6-tagged peptides and then with a phycoerythrin-conjugated secondary antibody specific for the -His6 tail. The dotted histogram is the isotopic control, whilst the black line is the binding intensity of the CD154-specific peptides [4.2=4.3=CPSGHTKAC (SEQ ID NO: 1), 4.4=CGTHSSRIC (SEQ ID NO: 2), 4.6=CLGTQNKEC (SEQ ID NO: 3), 4.7=4.12=CTPGKPHSC (SEQ ID NO: 4), 4.8=CKAASANIC (SEQ ID NO: 5), 4.10=CLPTRHMAC (SEQ ID NO: 6) and 4.11=CLSAVHNMC (SEQ ID NO: 7)]. For each experimental condition, 10,000 events were analyzed and the values are the mean and standard deviation of 3 different experiments.
(§1) The peptides were synthesized and conjugated with biotin (-bio) or with a 6-histidine tail (-his6) so as to enable in vitro and in vivo localization. […] Furthermore, a competition assay between the peptides and an anti-human CD154 fluorescein-conjugated antibody (Serotec) specifically recognizing the active site of CD154 was carried out. The J558L cells were incubated with the his6-peptides for 30 minutes at room temperature and then with anti-human CD154 fluorescein-conjugated antibody for another 30 minutes at room temperature. […] In order to identify the amino acid residues of the amino acid sequence of peptide 4.10 which are essential to the binding to CD154, three different peptides were synthesized, each one carrying a point mutation, which amino acid sequences differ from that of peptide 4.10 by replacement of the amino acid residues at positions 4, 5, 6, respectively, with one alanine residue.
The mutated peptides were not capable of recognizing human CD154 expressed at the surface of J558L cells (data not shown).
Similar results were obtained with the four modified peptides 4.101, 4.102, 4.103 e 4.104 having the amino acid sequences illustrated in table II.

[2] = test system: control J558 cells (CD154-negative); test: Binding to control CD154-negative J558 cells by flow cytometry; set-up: species or system murine; conditions: -His6 peptides
[3] = test system: CD40 stimulation of peripheral B cells by rhsCD154; test: rhsCD154-induced B cell activation (CD80 and CD86 membrane expression); assay type: cell-based, human
Protocol: The histograms of 4A show the effect of the anti-CD154 peptides and the control peptide 4.10-ala, on the activation B cells induced by stimulation with a soluble recombinant human CD154 molecule (rhsCD154). B cells were stimulated for 48 hours with rhsCD154 in the absence and in the presence of a blocking anti-human CD154 antibody or one of the seven selected peptides. Peripheral B cell activation was evaluated by flow cytometry, as the membrane expression of the co-stimulatory molecules CD80 and CD86. […] On the contrary, the activation is prevented when rhsCD154 is used in combination with a blocking anti-human CD154 antibody or with peptide 4.10 (SEQ ID NO: 6).
B cells are known to constitutively express the CD40 molecule on the cells membrane (van Kooten C. et al, J. Leukoc. Biol. 2000). Stimulation of CD40 by CD154-expressing activated T cells, results in B cells activation, proliferation and isotype switching. The inventors employed B cells isolated from whole peripheral blood of healthy donors by gradient-Ficoll centrifugation and immunomagnetical separation (MACS systems—Milteniy). The quiescent B cells thereby obtained, were then stimulated with a soluble form of human recombinant CD154 (rhsCD154) to induce activation and expression of the co-stimulatory molecules CD80 (B7-1) and CD86 (B7-2) on the cell membrane. A drastic increase in membrane expression of CD80 and CD86 on the cell surface of peripheral B cells, after stimulation for 48 hours with rhsCD154 (100 ng/ml) was observed. […] In contrast, pre-incubation for 15 minutes at 37° C. of rhsCD154 (100 ng/ml) with peptide 4.10 (SEQ. ID NO: 6), prior to lymphocyte stimulation, blocked B cells stimulation and the related expression of CD80 and CD86. […] The results are the mean±standard deviation of five different experiments. Similar results were also obtained with B cells isolated from human spleen fragments. […] These experiments were carried out on […] naive B cells, obtained from peripheral blood by negative selection, by depletion of mature lymphocytes from the B cell pool by immunomagnetic separation (MACS Systems Milteniy).

[4] = target: T2, active site of human CD154 (Homo sapiens, UniProt P29965); test: Competition with anti-human CD154 fluorescein-conjugated antibody on J558L cells; assay type: binding; conditions: -His6 peptides 30 minutes at room temperature, then antibody
T2 construct: expressed in transfected cells; host or cells: J558L murine myeloma cell line transfected with human CD154
T2 sequence (P29965 1-261): T1 sequence (P29965 1-261)
Protocol: The murine myeloma cells transfected with human CD154, J558L, were incubated with each of the seven anti-CD154 peptides tagged with a 6 histidines tail (-His6), and then with the anti-CD154 fluorescein-conjugated antibody. The ability of the peptides to compete with the anti-CD154 antibody for the binding to the CD154 molecule expressed on the surface of the J558L cells was evaluated by flow cytometry, as the reduction in the fluorescence intensity compared to the positive control represented by cells incubated with the anti-human CD154 fluorescein-conjugated antibody alone. […] The amino acid sequence of the control peptide differs from that of peptide 4.10 in that an arginine residue is replaced with an alanine residue at amino acid position 5.
as §1

HUVEC = test: In vitro angiogenesis: cell cord formation of HUVECs on Matrigel; assay type: cell-based, human; conditions: pre-incubated with rhsCD154 100 ng/ml for 15 minutes at 37° C.; 4 hours
From the text: FIGS. 7B-F show representative images of cell cord formation ability on Matrigel under the various experimental conditions mentioned above (B=unstimulated control; C=rhsCD154; D=rhsCD154+ 4.10 peptide; E=rhsCD154+ 4.10-ala peptide; F=rhsCD154+ blocking anti-CD154 antibody). Peptide 4.10 of the invention (SEQ ID NO: 6), contrary to control peptide 4.10-ala (SEQ ID NO: 8), inhibits the rhsCD154-induced ability of the endothelial cells of forming cell cords.
Furthermore, in order to evaluate the inhibitory effect, rhsCD154 (100 ng/ml) was pre-incubated for 15 minutes at 37° C. with peptide 4.10 (SEQ. ID NO: 6), or with control peptide 4.10-ala (SEQ. ID NO: 8), or with a blocking anti-human CD154 antibody. The flasks were then observed at 10× magnification for a period of 4 hours under a phase contrast inverted microscope equipped with a thermostatic chamber (at about 37° C.). The cells were photographed with a camera connected to the microscope, over the whole length of time of 4 hours at regular intervals of 15 minutes each. The migratory speed of each of the cells was calculated based on the position of the nucleus of each single cell in each single frame, using an image analysis software and, as a result, the average cell migratory speed (1 standard deviation) was calculated for each experimental condition. […] As a further confirmation of the ability of peptide 4.10 to prevent human endothelial CD40 stimulation by rhsCD154 (100 ng/ml), HUVECs (3.5×10^4) were subjected to an in vitro angiogenesis assay. HUVECs were plated on a tumor matrix (Matrigel, BD) capable of promoting the formation of super cellular organization, in a basal RPMI medium supplemented with 5% serum. Upon incubation at 37° C. under 5% CO2 for 4 hours, the cells were observed under a contrast phase inverted microscope.

[5] = peptide 250 μM with rhsCD154 100 ng/ml

binding to J558L CD154+ cells [1]	Molecule	binding to control J558 cells [2]	other results
	CSCC[C@@H]1NC(=O)[C@H](Cc2c[nH]cn2)NC(=O)[C@H](CCCNC(=N)N)NC(=O)[C@H]([C@@H](C)O)NC(=O)[C@@H]2CCCN2C(=O)[C@H](CC(C)C)NC(=O)[C@@H](N)CSSC[C@@H](C(=O)O)NC(=O)[C@H](C)NC1=O [peptide 4.10, CLPTRHMAC] (H-CLPTRHMAC-OH; disulfide 1-9)		platelet aggregation induced by ADP 0.5 μM after priming (human platelets; priming 10 minutes at 37° C., peptide 60 μM with CD154): did not enhance platelet aggregation; activation of human platelet aggregation with thrombin at a subliminal dose (human platelets; thrombin 0.3 U/ml): inactive
capable of specifically binding	CGTHSSRIC (disulfide 1-9 (inferred)) [4.4]	not capable of binding	
capable of specifically binding	CKAASANIC (disulfide 1-9 (inferred)) [4.8]	not capable of binding	
capable of specifically binding	CLGTQNKEC (disulfide 1-9 (inferred)) [peptide 4.6]	not capable of binding	expression of CD80 compared to basal levels [3, 5]: 117%; expression of CD86 compared to basal levels [3, 5]: 122%; competition with anti-human CD154 fluorescein-conjugated antibody specific for the active site of CD154 [4]: do not specifically bind to the active site; effect on rhsCD154-induced formation of vessel-like cell cords on Matrigel (HUVEC): not capable of significantly reducing the stimulation of endothelial CD40
capable of specifically binding	CLSAVHNMC (disulfide 1-9 (inferred)) [peptide 4.11]	not capable of binding	inhibition of rhsCD154-induced B cell activation (CD80 and CD86 expression) ([3]; 250 μM): not stably reproducible; competition with anti-human CD154 fluorescein-conjugated antibody specific for the active site of CD154 [4]: do not specifically bind to the active site; effect on rhsCD154-induced formation of vessel-like cell cords on Matrigel (HUVEC): not capable of significantly reducing the stimulation of endothelial CD40
capable of specifically binding	CPSGHTKAC (disulfide 1-9 (inferred)) [4.2=4.3]	not capable of binding	
capable of specifically binding	CTPGKPHSC (disulfide 1-9 (inferred)) [4.7=4.12]	not capable of binding	

Molecule	binding to J558L CD154+ cells [1]	binding to control J558 cells [2]	other results
CIPTRHMAC (binding protein) [4.101, modified form of peptide 4.10]	None of these peptides proved to be capable of binding		
CIPTRHMVC (binding protein) [4.103, modified form of peptide 4.10]	None of these peptides proved to be capable of binding		
CLPSRHMAC (binding protein) [4.102, modified form of peptide 4.10]	None of these peptides proved to be capable of binding		
CLPTRWMAC (binding protein) [4.104, modified form of peptide 4.10]	None of these peptides proved to be capable of binding		
